Here are results for 17 compounds from patent publication US20250257086A1, “EGFR DEGRADATION AGENT” (Beijing Tide Pharmaceutical Co., Ltd., priority 2022, published 2025).

Sequence of Ba/F3 (EGFR^L858R/T790M/C797S) cells (P00533 whole entry T790M/C797S/L858R): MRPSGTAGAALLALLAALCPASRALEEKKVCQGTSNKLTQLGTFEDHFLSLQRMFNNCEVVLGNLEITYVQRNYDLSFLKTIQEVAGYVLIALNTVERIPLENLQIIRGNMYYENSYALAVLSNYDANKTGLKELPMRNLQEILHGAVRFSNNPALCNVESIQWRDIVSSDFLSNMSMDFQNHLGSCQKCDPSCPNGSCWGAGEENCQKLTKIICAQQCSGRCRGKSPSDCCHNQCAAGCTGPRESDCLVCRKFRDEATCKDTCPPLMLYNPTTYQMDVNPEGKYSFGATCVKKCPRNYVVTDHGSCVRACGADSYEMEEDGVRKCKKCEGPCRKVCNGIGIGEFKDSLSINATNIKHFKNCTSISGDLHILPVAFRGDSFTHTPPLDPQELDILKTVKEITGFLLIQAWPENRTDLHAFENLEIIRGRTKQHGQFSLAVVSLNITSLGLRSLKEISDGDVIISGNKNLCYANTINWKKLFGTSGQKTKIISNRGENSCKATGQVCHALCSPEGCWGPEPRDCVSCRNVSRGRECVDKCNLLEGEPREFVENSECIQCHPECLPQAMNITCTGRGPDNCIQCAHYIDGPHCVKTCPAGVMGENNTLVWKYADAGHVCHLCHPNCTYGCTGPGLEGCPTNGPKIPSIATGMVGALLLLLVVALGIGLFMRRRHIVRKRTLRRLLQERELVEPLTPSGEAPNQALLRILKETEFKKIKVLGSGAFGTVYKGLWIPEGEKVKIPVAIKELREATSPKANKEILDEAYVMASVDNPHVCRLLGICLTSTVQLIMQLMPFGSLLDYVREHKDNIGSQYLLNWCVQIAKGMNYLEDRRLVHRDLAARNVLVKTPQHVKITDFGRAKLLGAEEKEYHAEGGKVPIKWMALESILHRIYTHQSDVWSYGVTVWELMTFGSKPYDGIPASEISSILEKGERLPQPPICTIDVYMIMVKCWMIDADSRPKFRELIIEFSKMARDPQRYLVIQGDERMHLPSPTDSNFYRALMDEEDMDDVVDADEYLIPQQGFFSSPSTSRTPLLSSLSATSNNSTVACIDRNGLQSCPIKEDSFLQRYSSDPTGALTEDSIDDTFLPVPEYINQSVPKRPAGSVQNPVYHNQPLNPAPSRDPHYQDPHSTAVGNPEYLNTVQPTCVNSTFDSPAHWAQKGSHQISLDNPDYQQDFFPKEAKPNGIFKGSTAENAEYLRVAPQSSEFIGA

This assay addresses Ba/F3 (EGFR^L858R/T790M/C797S) cells (Homo sapiens, UniProt P00533, T790M/C797S/L858R, cells depend on it). The assay can be described thus: Antiproliferative activity on Ba/F3 (EGFR L858R/T790M/C797S) cells (CTG). The format is cell-based. The settings on record: 72h incubation, CTG luminescence, read-out: IC50 (nM), antiproliferative activity. How it is done:
30 nL of the compound dilution was added to a 384-well plate by Echo (Labcyte, Echo550).
The percent inhibition rate (% inhibition) was calculated by the following formula
[formula] • LUMcmpd: Luminescence value of assay compound. • LUMpositive: Average LUM value of positive drug with a concentration of 10 μM. • LUMvehicle: Average LUM value of negative control group without drug treatment.
The nonlinear regression curve (dose response-variable slope) between the value of inhibition rate (%) and the logarithm of compound concentration was fitted with graphpad prism 8.0, the effect dose curve of compound was drawn, and the IC50 value was calculated.
Y=Bottom+(Top−Bottom)/(1+10^((Log IC50−X)*HillSlope)) • X-axis: logarithm of compound concentration; Y axis: inhibition rate (% inhibition).
On to `COc1cc(N2CCC(N3CCN(CCCCC#Cc4cccc5c4CN(C4CCC(=O)NC4=O)C5=O)CC3)CC2)c(NC(=O)/C=C/CN(C)C)cc1Nc1ncc(Cl)c(Nc2ccccc2P(C)(C)=O)n1` (centres unmarked) [Compound D556, (E)-N-(5-((5-chloro-4-((2-(dimethylphosphoryl)phenyl)amino)pyrimidin-2-yl)amino)-2-(4-(4-(6-(2-(2,6-dioxopiperidin-3-yl)-1-oxoisoindolin-4-yl)hex-5-yn-1-yl)piperazin-1-yl)piperidin-1-yl)-4-dimethoxyphenyl)-4-(dimethylamino)but-2-enamide], for which the GI50 worked out at 582 nM.

Consider `CC#CC(=O)Nc1cc(Nc2ncc(Cl)c(Nc3ccccc3P(C)(C)=O)n2)c(OC)cc1N1CCC(N2CCN(CCCCC#Cc3cccc4c3CN(C3CCC(=O)NC3=O)C4=O)CC2)CC1` (centres unmarked) [Compound D559, N-(5-((5-chloro-4-((2-(dimethylphosphoryl)phenyl)amino)pyrimidin-2-yl)amino)-2-(4-(4-(6-(2-(2,6-dioxopiperidin-3-yl)-1-oxoisoindolin-4-yl)hex-5-yn-1-yl)piperazin-1-yl)piperidin-1-yl)-4-methoxyphenyl)but-2-ynamide], for which the GI50 came to 50.4 nM.

Regarding `C=CC(=O)Nc1cc(Nc2ncc(Cl)c(Nc3ccccc3P(C)(C)=O)n2)c(OC)cc1N1CCC(N2CCN(CCCCC#Cc3ccc4c(c3)CN(C3CCC(=O)NC3=O)C4=O)CC2)CC1` (centres unmarked) [Compound D601, N-(5-((5-chloro-4-((2-(dimethylphosphoryl)phenyl)amino)pyrimidin-2-yl)amino)-2-(4-(4-(6-(2-(2,6-dioxopiperidin-3-yl)-1-oxoisoindolin-5-yl)hex-5-yn-1-yl)piperazin-1-yl)piperidin-1-yl)-4-methoxyphenyl)acrylamide], the GI50 was found to be 144 nM.

With `CC#CC(=O)Nc1cc(Nc2ncc(Br)c(Nc3ccccc3P(C)(C)=O)n2)c(OCC(F)(F)F)cc1N1CCC(N2CCN(CCCC#Cc3cccc4c3CN(C3CCC(=O)NC3=O)C4=O)CC2)CC1` (centres unmarked) [Compound D845, N-(5-((5-bromo-4-((2-(dimethylphosphoryl)phenyl)amino)pyrimidin-2-yl)amino)-2-(4-(4-(5-(2-(2,6-dioxopiperidin-3-yl)-1-oxoisoindolin-4-yl)pent-4-yn-1-yl)piperazin-1-yl)piperidin-1-yl)-4-(2,2,2-trifluoroethoxy)phenyl)but-2-ynamide], the GI50 was found to be 16.9 nM.

In the case of `COc1cc(N2CCC(N3CCN(CCCC#Cc4cccc5c4CN(C4CCC(=O)NC4=O)C5=O)CC3)CC2)c(NC(=O)/C=C/C(F)(F)F)cc1Nc1ncc(C(F)(F)F)c(Nc2ccccc2P(C)(C)=O)n1` (centres unmarked) [Compound D747, (E)-N-(5-((4-((2-(dimethylphosphoryl)phenyl)amino)-5-(trifluoromethyl)pyrimidin-2-yl)amino)-2-(4-(4-(5-(2-(2,6-dioxopiperidin-3-yl)-1-oxoisoindolin-4-yl)pent-4-yn-1-yl)piperazin-1-yl)piperidin-1-yl)-4-methoxyphenyl)-4,4,4-trifluorobut-2-enamide], the GI50 is 8.77 nM.

Regarding `C=CC(=O)Nc1cc(Nc2ncc(Br)c(Nc3ccccc3P(C)(C)=O)n2)ccc1N1CCC(N2CCN(CCCCCC#Cc3cccc4c3CN(C3CCC(=O)NC3=O)C4=O)CC2)CC1` (centres unmarked) [Compound D551, N-(5-((5-bromo-4-((2-(dimethylphosphoryl)phenyl)amino)pyrimidin-2-yl)amino)-2-(4-(4-(7-(2-(2,6-dioxopiperidin-3-yl)-1-oxoisoindolin-4-yl)hept-6-yn-1-yl)piperazin-1-yl)piperidin-1-yl)phenyl)acrylamide], the GI50 came out at 14.5 nM.

`CC#CC(=O)Nc1cc(Nc2ncc(Br)c(Nc3ccccc3P(C)(C)=O)n2)c(OC)cc1N1CCC(N2CCN(CCCC#Cc3cccc4c3CN(C3CCC(=O)NC3=O)C4=O)CC2)CC1` (centres unmarked) [Compound D604, N-(5-((5-bromo-4-((2-(dimethylphosphoryl)phenyl)amino)pyrimidin-2-yl)amino)-2-(4-(4-(5-(2-(2,6-dioxopiperidin-3-yl)-1-oxoisoindolin-4-yl)pent-4-yn-1-yl)piperazin-1-yl)piperidin-1-yl)-4-methoxyphenyl)but-2-ynamide]: the GI50 is 44.4 nM.

Consider `C=CC(=O)Nc1cc(Nc2ncc(Cl)c(Nc3ccc4nccnc4c3P(C)(C)=O)n2)c(OC)cc1N1CCC(N2CCN(CCCC#Cc3cccc4c3CN(C3CCC(=O)NC3=O)C4=O)CC2)CC1` (centres unmarked) [Compound D670, N-(5-((5-chloro-4-((5-(dimethylphosphoryl)quinoxalin-6-yl)amino)pyrimidin-2-yl)amino)-2-(4-(4-(5-(2-(2,6-dioxopiperidin-3-yl)-1-oxoisoindolin-4-yl)pent-4-yn-1-yl)piperazin-1-yl)piperidin-1-yl)-4-methoxyphenyl)acrylamide], for which the GI50 worked out at 25.7 nM.

`C=C(F)C(=O)Nc1cc(Nc2ncc(Br)c(Nc3ccccc3P(C)(C)=O)n2)c(OCC(F)(F)F)cc1N1CCC(N2CCN(CCCC#Cc3cccc4c3CN(C3CCC(=O)NC3=O)C4=O)CC2)CC1` (centres unmarked) [Compound D846, N-(5-((5-bromo-4-((2-(dimethylphosphoryl)phenyl)amino)pyrimidin-2-yl)amino)-2-(4-(4-(5-(2-(2,6-dioxopiperidin-3-yl)-1-oxoisoindolin-4-yl)pent-4-yn-1-yl)piperazin-1-yl)piperidin-1-yl)-4-(2,2,2-trifluoroethoxy)phenyl)-2-fluoroacrylamide]: the GI50 was determined as 11.9 nM.

With `C=C(C)C(=O)Nc1cc(Nc2ncc(Cl)c(Nc3ccccc3P(C)(C)=O)n2)c(OC)cc1N1CCC(N2CCN(CCCC#Cc3cccc4c3CN(C3CCC(=O)NC3=O)C4=O)CC2)CC1` (centres unmarked) [Compound D579, N-(5-((5-chloro-4-((2-(dimethylphosphoryl)phenyl)amino)pyrimidin-2-yl)amino)-2-(4-(4-(5-(2-(2,6-dioxopiperidin-3-yl)-1-oxoisoindolin-4-yl)pent-4-yn-1-yl)piperazin-1-yl)piperidin-1-yl)-4-methoxyphenyl)methacrylamide], the GI50 turned out to be 41.4 nM.

In the case of `C=C(F)C(=O)Nc1cc(Nc2ncc(Cl)c(Nc3ccccc3P(C)(C)=O)n2)c(OC)cc1N1CCC(N2CCN(CCCCCC#Cc3cccc4c3CN(C3CCC(=O)NC3=O)C4=O)CC2)CC1` (centres unmarked) [Compound D554, N-(5-((5-chloro-4-((2-(dimethylphosphoryl)phenyl)amino)pyrimidin-2-yl)amino)-2-(4-(4-(7-(2-(2,6-dioxopiperidin-3-yl)-1-oxoisoindolin-4-yl)hept-6-yn-1-yl)piperazin-1-yl)piperidin-1-yl)-4-methoxyphenyl)-2-fluoroacrylamide], the GI50 amounted to 45.2 nM.

Consider `CC#CC(=O)Nc1cc(Nc2ncc(Cl)c(Nc3ccc4c(c3P(C)(C)=O)OCCO4)n2)c(OC)cc1N1CCC(N2CCN(CCCC#Cc3cccc4c3CN(C3CCC(=O)NC3=O)C4=O)CC2)CC1` (centres unmarked) [Compound D685], for which the GI50 worked out at 22.5 nM.

With `COc1cc(N2CCC(N3CCN(CCCCCC#Cc4cccc5c4CN(C4CCC(=O)NC4=O)C5=O)CC3)CC2)c(NC(=O)/C=C/CN(C)C)cc1Nc1ncc(Cl)c(Nc2ccccc2P(C)(C)=O)n1` (centres unmarked) [Compound D557, (E)-N-(5-((5-chloro-4-((2-(dimethylphosphoryl)phenyl)amino)pyrimidin-2-yl)amino)-2-(4-(4-(7-(2-(2,6-dioxopiperidin-3-yl)-1-oxoisoindolin-4-yl)hept-6-yn-1-yl)piperazin-1-yl)piperidin-1-yl)-4-dimethoxyphenyl)-4-(dimethylamino)but-2-enamide], the GI50 was 383 nM.

As for `COc1cc(N2CCC(N3CCN(CCCC#Cc4cccc5c4CN(C4CCC(=O)NC4=O)C5=O)CC3)CC2)c(NC(=O)/C=C/CN(C)C)cc1Nc1ncc(Cl)c(Nc2ccccc2P(C)(C)=O)n1` (centres unmarked) [Compound D555, N-(5-((5-chloro-4-((2-(dimethylphosphoryl)phenyl)amino)pyrimidin-2-yl)amino)-2-(4-(4-(5-(2-(2,6-dioxopiperidin-3-yl)-1-oxoisoindolin-4-yl)pent-4-yn-1-yl)piperazin-1-yl)piperidin-1-yl)-4-methoxyphenyl)-4-(dimethylamino)but-2-enamide], the GI50 came out at 67.6 nM.

Regarding `COc1cc(N2CCC(N3CCN(CCCCC#Cc4ccc5c(c4)CN(C4CCC(=O)NC4=O)C5=O)CC3)CC2)c(NC(=O)/C=C/C(F)(F)F)cc1Nc1ncc(Cl)c(Nc2ccccc2P(C)(C)=O)n1` (centres unmarked) [Compound D623, N-(5-((5-chloro-4-((2-(dimethylphosphoryl)phenyl)amino)pyrimidin-2-yl)amino)-2-(4-(4-(6-(2-(2,6-dioxopiperidin-3-yl)-1-oxoisoindolin-5-yl)hex-5-yn-1-yl)piperazin-1-yl)piperidin-1-yl)-4-methoxyphenyl)-4,4,4-trifluorobut-2-enamide], the GI50 was found to be 94.3 nM.

Regarding `C=CC(=O)Nc1cc(Nc2ncc(Br)c(Nc3ccccc3P(C)(C)=O)n2)c(OC)cc1N1CCC(N2CCN(CCCCCC#Cc3cccc4c3CN(C3CCC(=O)NC3=O)C4=O)CC2)CC1` (centres unmarked) [Compound D503, N-(5-((5-bromo-4-((2-(dimethylphosphoryl)phenyl)amino)pyrimidin-2-yl)amino)-2-(4-(4-(7-(2-(2,6-dioxopiperidin-3-yl)-1-oxoisoindolin-4-yl)hept-6-yn-1-yl)piperazin-1-yl)piperidin-1-yl)-4-methoxyphenyl)acrylamide], the GI50 is 51.2 nM.

With `COc1cc(N2CCC(N3CCN(CCCC#Cc4cccc5c4CN(C4CCC(=O)NC4=O)C5=O)CC3)CC2)c(NC(=O)/C=C/CN2CCCCC2)cc1Nc1ncc(Cl)c(Nc2ccccc2P(C)(C)=O)n1` (centres unmarked) [Compound D584, (E)-N-(5-((5-chloro-4-((2-(dimethylphosphoryl)phenyl)amino)pyrimidin-2-yl)amino)-2-(4-(4-(5-(2-(2,6-dioxopiperidin-3-yl)-1-oxoisoindolin-4-yl)pent-4-yn-1-yl)piperazin-1-yl)piperidin-1-yl)-4-methoxyphenyl)-4-(piperidin-1-yl)but-2-enamide], the GI50 is 216 nM.
